How the values were obtained:
Test in all cases: radiometric filter-binding kinase assay
DYRK1A (human) = DYRK1A (human) (UniProt Q13627)
EPHB4 (human) = EPHB4 (human) (UniProt P54760)
PIM1 (human) = PIM1 (human) (UniProt P11309)
MAPKAPK5 (human) = MAPKAPK5 (human) (UniProt Q8IW41)
FGFR1 (human) = FGFR1 (human) (UniProt P11362); details: compound 10.0 µM
HIPK3 (human) = HIPK3 (human) (UniProt Q9H422)
PRKCZ (human) = PRKCZ (human) (UniProt Q05513)
PAK7 (human) = PAK7 (human) (UniProt Q9P286)
[1] = tested on: SGK1 (human), O00141 [S422D]
MAP3K5 (human) = MAP3K5 (human) (UniProt Q99683); details: compound 10.0 µM
SYK (human) = SYK (human) (UniProt P43405)
IKBKE (human) = IKBKE (human) (UniProt Q14164)
PIM2 (human) = PIM2 (human) (UniProt Q9P1W9)
DAPK1 (human) = DAPK1 (human) (UniProt P53355)
BRSK2 (human) = BRSK2 (human) (UniProt Q8IWQ3)
MAPK3 (human) = MAPK3 (human) (UniProt P27361); details: compound 10.0 µM
PIM3 (human) = PIM3 (human) (UniProt Q86V86)
MKNK1 (human) = MKNK1 (human) (UniProt Q9BUB5)
MAPKAPK2 (human) = MAPKAPK2 (human) (UniProt P49137); details: compound 10.0 µM
MAP2K6 (human) = MAP2K6 (human) (UniProt P52564)
MAPK12 (human) = MAPK12 (human) (UniProt P53778)
BRSK1 (human) = BRSK1 (human) (UniProt Q8TDC3)
MAP2K2 (human) = MAP2K2 (human) (UniProt P36507)
MELK (human) = MELK (human) (UniProt Q14680)
STK3 (human) = STK3 (human) (UniProt Q13188)
PHKG1 (human) = PHKG1 (human) (UniProt Q16816)
PRKACA (human) = PRKACA (human) (UniProt P17612)
MARK1 (human) = MARK1 (human) (UniProt Q9P0L2)
MAPK9 (human) = MAPK9 (human) (UniProt P45984)
CAMKK2 (human) = CAMKK2 (human) (UniProt Q96RR4)
PRKAA1 or PRKAA2 (rat) = details: accession and sequence are those of the human protein
GSK3B (human) = GSK3B (human) (UniProt P49841)
ERBB4 (human) = ERBB4 (human) (UniProt Q15303)
EEF2K (human) = EEF2K (human) (UniProt O00418)
MAPK13 (human) = MAPK13 (human) (UniProt O15264)
IGF1R (human) = IGF1R (human) (UniProt P08069)

Sequence of STK3 (human) (Q13188 whole entry, looked up): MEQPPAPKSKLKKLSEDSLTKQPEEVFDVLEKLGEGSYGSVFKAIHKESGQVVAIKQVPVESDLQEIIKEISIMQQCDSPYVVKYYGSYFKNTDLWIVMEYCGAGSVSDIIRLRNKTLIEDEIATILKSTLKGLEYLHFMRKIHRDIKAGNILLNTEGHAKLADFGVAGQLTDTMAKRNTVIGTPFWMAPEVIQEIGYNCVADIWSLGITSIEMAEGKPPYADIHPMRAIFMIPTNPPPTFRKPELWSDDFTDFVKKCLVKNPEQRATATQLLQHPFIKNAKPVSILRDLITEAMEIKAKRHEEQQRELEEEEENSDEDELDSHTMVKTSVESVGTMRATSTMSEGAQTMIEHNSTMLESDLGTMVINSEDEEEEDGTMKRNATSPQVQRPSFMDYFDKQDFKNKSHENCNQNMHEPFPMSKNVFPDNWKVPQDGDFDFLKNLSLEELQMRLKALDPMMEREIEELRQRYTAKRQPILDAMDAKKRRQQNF
Sequence of SGK1 (human), O00141 [S422D] (O00141 whole entry S422D, looked up): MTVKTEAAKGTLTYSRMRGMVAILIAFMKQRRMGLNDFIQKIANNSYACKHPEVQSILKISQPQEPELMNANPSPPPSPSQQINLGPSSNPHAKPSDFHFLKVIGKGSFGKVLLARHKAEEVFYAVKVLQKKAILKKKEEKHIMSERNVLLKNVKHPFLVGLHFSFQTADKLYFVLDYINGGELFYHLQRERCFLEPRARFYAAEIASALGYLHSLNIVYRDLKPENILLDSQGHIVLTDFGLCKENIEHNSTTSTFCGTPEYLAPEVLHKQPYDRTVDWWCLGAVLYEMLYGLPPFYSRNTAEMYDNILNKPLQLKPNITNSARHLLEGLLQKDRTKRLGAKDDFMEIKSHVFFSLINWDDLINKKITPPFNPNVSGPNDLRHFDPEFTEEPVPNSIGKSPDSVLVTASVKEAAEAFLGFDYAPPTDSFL
Sequence of GSK3B (human) (P49841 whole entry, looked up): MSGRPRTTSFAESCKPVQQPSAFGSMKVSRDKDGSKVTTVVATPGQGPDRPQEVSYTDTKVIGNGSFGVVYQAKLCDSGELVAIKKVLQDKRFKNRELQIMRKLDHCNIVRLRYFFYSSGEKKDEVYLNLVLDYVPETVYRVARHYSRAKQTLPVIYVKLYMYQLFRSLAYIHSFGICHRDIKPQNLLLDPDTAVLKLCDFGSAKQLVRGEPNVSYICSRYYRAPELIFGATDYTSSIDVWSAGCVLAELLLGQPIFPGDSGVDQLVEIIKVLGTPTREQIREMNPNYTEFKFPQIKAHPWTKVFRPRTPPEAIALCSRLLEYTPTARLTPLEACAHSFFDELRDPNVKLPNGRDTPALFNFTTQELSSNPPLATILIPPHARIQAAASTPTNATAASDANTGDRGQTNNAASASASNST
Sequence of MKNK1 (human) (Q9BUB5 whole entry, looked up): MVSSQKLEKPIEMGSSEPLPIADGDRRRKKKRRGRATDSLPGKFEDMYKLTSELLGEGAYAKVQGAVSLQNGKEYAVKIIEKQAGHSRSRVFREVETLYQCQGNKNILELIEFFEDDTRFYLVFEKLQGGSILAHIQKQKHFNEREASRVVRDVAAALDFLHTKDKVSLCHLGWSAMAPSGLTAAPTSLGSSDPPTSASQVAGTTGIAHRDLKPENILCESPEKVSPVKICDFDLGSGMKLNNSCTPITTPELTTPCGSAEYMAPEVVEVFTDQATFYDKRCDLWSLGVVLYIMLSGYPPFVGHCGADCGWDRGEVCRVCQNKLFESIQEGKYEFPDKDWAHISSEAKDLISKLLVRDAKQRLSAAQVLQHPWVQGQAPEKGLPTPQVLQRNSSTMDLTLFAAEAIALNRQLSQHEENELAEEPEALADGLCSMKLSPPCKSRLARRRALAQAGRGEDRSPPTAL
Sequence of MAPKAPK5 (human) (Q8IW41 whole entry, looked up): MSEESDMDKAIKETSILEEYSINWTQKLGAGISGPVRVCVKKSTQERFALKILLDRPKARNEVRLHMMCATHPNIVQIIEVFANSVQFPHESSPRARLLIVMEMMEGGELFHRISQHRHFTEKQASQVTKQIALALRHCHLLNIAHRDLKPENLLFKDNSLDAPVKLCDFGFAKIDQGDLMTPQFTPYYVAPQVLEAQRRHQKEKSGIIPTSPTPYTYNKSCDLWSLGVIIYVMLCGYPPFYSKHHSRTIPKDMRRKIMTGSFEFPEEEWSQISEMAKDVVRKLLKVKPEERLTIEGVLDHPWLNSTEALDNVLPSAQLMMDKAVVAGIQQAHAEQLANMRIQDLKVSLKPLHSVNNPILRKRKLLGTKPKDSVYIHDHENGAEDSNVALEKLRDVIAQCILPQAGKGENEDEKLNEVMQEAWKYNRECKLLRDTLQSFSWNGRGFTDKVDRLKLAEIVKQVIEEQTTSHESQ
Sequence of HIPK3 (human) (Q9H422 whole entry, looked up): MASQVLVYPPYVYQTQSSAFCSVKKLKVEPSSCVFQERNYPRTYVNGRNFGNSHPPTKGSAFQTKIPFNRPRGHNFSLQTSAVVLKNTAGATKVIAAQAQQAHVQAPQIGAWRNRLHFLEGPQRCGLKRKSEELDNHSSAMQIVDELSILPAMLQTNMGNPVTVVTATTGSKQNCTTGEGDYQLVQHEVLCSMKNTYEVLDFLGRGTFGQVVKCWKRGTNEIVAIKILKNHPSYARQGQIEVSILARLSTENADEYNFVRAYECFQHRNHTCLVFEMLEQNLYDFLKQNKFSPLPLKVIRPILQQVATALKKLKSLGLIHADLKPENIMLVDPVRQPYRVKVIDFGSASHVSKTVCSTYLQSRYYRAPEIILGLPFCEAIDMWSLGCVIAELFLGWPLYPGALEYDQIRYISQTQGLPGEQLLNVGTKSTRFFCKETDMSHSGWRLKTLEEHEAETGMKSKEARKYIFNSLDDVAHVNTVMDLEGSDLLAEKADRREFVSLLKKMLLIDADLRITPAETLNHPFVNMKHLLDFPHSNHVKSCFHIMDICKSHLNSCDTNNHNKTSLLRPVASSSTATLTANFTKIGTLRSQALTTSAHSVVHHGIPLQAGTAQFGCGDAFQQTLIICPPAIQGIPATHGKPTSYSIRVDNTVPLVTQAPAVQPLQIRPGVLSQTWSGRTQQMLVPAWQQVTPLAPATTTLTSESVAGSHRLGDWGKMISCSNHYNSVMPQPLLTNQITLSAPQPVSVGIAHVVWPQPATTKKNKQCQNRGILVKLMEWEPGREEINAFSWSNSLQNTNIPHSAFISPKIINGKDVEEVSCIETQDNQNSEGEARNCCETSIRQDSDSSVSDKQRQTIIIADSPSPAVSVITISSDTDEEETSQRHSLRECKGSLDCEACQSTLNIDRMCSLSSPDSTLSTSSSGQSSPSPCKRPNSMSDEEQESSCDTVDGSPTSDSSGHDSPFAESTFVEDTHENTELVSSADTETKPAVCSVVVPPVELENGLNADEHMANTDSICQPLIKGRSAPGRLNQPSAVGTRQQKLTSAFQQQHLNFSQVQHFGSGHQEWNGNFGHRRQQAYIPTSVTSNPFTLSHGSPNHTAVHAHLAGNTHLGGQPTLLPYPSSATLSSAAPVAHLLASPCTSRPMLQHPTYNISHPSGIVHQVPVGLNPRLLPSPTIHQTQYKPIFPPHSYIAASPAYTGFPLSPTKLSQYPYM
Sequence of BRSK2 (human) (Q8IWQ3 whole entry, looked up): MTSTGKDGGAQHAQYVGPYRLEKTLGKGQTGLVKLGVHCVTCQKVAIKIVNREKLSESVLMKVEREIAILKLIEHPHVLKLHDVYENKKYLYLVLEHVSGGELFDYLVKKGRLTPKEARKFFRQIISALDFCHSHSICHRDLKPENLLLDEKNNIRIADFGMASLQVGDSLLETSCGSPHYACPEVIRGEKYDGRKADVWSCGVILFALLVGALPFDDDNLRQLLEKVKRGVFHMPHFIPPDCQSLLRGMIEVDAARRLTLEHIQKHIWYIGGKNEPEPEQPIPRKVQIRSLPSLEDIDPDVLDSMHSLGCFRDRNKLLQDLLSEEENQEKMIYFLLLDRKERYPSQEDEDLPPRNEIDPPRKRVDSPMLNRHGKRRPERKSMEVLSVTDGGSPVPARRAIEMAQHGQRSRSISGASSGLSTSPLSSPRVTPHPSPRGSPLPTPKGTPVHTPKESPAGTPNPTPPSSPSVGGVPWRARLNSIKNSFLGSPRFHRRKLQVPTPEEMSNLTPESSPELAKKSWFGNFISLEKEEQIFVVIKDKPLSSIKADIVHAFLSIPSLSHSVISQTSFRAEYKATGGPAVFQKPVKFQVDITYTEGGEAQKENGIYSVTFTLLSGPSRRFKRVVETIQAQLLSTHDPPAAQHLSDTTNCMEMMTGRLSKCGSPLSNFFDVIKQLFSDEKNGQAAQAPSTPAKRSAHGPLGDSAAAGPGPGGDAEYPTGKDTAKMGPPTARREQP
Sequence of MARK1 (human) (Q9P0L2 whole entry, looked up): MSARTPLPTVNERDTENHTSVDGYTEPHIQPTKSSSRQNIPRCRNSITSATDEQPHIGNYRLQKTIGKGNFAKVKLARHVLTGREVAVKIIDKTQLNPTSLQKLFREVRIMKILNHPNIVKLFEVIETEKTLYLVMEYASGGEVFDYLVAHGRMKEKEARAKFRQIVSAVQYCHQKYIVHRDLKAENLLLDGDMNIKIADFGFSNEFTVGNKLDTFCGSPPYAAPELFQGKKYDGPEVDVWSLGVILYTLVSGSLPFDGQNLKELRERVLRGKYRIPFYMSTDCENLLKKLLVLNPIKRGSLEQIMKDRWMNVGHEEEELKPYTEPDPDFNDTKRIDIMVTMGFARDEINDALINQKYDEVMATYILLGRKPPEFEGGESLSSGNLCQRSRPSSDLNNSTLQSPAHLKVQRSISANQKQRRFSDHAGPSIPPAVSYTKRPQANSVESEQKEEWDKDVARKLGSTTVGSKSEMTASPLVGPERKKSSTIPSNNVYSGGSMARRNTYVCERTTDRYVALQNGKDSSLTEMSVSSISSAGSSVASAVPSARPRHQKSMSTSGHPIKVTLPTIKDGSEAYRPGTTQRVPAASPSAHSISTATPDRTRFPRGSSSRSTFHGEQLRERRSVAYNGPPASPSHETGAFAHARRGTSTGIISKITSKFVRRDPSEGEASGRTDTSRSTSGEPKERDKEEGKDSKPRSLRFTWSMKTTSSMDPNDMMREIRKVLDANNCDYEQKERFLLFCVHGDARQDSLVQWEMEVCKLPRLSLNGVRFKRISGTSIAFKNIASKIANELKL

residual activity (DYRK1A (human); compound 1.0 µM): 102%
residual activity (DYRK1A (human); compound 10.0 µM): 85%
residual activity (EPHB4 (human); compound 1.0 µM): 93%
residual activity (EPHB4 (human); compound 10.0 µM): 79%
residual activity (PIM1 (human); compound 1.0 µM): 83%
residual activity (PIM1 (human); compound 10.0 µM): 66%
residual activity (MAPKAPK5 (human); compound 1.0 µM): 87%
residual activity (MAPKAPK5 (human); compound 10.0 µM): 82%
residual activity (FGFR1 (human)): 103%
residual activity (HIPK3 (human); compound 1.0 µM): 108%
residual activity (HIPK3 (human); compound 10.0 µM): 119%
residual activity (PRKCZ (human); compound 1.0 µM): 93%
residual activity (PRKCZ (human); compound 10.0 µM): 96%
residual activity (PAK7 (human); compound 1.0 µM): 101%
residual activity (PAK7 (human); compound 10.0 µM): 88%
residual activity ([1]; compound 1.0 µM): 99%
residual activity ([1]; compound 10.0 µM): 98%
residual activity (MAP3K5 (human)): 127%
residual activity (SYK (human); compound 1.0 µM): 158%
residual activity (SYK (human); compound 10.0 µM): 117%
residual activity (IKBKE (human); compound 1.0 µM): 138%
residual activity (IKBKE (human); compound 10.0 µM): 100%
residual activity (PIM2 (human); compound 1.0 µM): 110%
residual activity (PIM2 (human); compound 10.0 µM): 88%
residual activity (DAPK1 (human); compound 1.0 µM): 85%
residual activity (DAPK1 (human); compound 10.0 µM): 60%
residual activity (BRSK2 (human); compound 1.0 µM): 100%
residual activity (BRSK2 (human); compound 10.0 µM): 86%
residual activity (MAPK3 (human)): 95%
residual activity (PIM3 (human); compound 1.0 µM): 66%
residual activity (PIM3 (human); compound 10.0 µM): 19%
residual activity (MKNK1 (human); compound 1.0 µM): 106%
residual activity (MKNK1 (human); compound 10.0 µM): 95%
residual activity (MAPKAPK2 (human)): 44%
residual activity (MAP2K6 (human); compound 1.0 µM): 85%
residual activity (MAP2K6 (human); compound 10.0 µM): 81%
residual activity (MAPK12 (human); compound 1.0 µM): 84%
residual activity (MAPK12 (human); compound 10.0 µM): 96%
residual activity (BRSK1 (human); compound 1.0 µM): 94%
residual activity (BRSK1 (human); compound 10.0 µM): 91%
residual activity (MAP2K2 (human); compound 1.0 µM): 77%
residual activity (MAP2K2 (human); compound 10.0 µM): 73%
residual activity (MELK (human); compound 1.0 µM): 84%
residual activity (MELK (human); compound 10.0 µM): 87%
residual activity (STK3 (human); compound 1.0 µM): 73%
residual activity (STK3 (human); compound 10.0 µM): 75%
residual activity (PHKG1 (human); compound 1.0 µM): 85%
residual activity (PHKG1 (human); compound 10.0 µM): 83%
residual activity (PRKACA (human); compound 1.0 µM): 99%
residual activity (PRKACA (human); compound 10.0 µM): 91%
residual activity (MARK1 (human); compound 1.0 µM): 96%
residual activity (MARK1 (human); compound 10.0 µM): 104%
residual activity (MAPK9 (human); compound 1.0 µM): 90%
residual activity (MAPK9 (human); compound 10.0 µM): 86%
residual activity (CAMKK2 (human); compound 1.0 µM): 92%
residual activity (CAMKK2 (human); compound 10.0 µM): 73%
residual activity (PRKAA1 or PRKAA2 (rat); compound 1.0 µM): 92%
residual activity (PRKAA1 or PRKAA2 (rat); compound 10.0 µM): 83%
residual activity (GSK3B (human); compound 1.0 µM): 90%
residual activity (GSK3B (human); compound 10.0 µM): 74%
residual activity (ERBB4 (human); compound 1.0 µM): 102%
residual activity (ERBB4 (human); compound 10.0 µM): 103%
residual activity (EEF2K (human); compound 1.0 µM): 102%
residual activity (EEF2K (human); compound 10.0 µM): 95%
residual activity (MAPK13 (human); compound 1.0 µM): 103%
residual activity (MAPK13 (human); compound 10.0 µM): 97%
residual activity (IGF1R (human); compound 1.0 µM): 93%
residual activity (IGF1R (human); compound 10.0 µM): 89%
Structure (SMILES): Cc1nc(-c2ccc(OCC(C)C)c(C#N)c2)sc1C(=O)O

Reference: the kinase profiling compilation of Christmann-Franck et al. (2016)
